Experimental findings from patent publication US20090130165A1, “MIF Inhibitors” (Cortical Pty Ltd, priority 2005, published 2009) are described below.

Structures are written as SMILES. ≈ marks a conversion by molar mass, not a printed value.

The test system of data set [1] is LPS-induced IL-6 production in RAW264.7 mouse macrophage cell line. As to the kind of experiment: Inhibition of LPS-induced production of IL-6 in RAW264.7 macrophages. It is filed as cell-based. The settings on record: 50 uM compound, 100 ng/ml LPS 4 hr, RAW264.7 cells, relative to LPS+DMSO control. Here is the method: MIF is an important factor in the innate immune response to toxins such as the bacterial endotoxin lipopolysaccharide (LPS). […] A compound with the ability to inhibit the biological activity of MIF would therefore inhibit the activation of cytokine production by macrophages in response to LPS. The RAW264.7 mouse macrophage cell line was propagated in DMEM/10% foetal calf serum (FCS) at 37° C. in 5% CO2. 24 hr prior to assay cells were seeded in 96-well tissue culture plates. Cells were allowed to adhere for 4 hr prior to transfer to DMEM/0.5% FCS for 18 hr. Cells were then treated with 50 uM compound in DMSO for 30 min prior to stimulation for 4 hr with 100 ng/ml LPS. Cell culture supernatants were then collected from each well and assayed for IL-6 levels by ELISA (R&D Systems) according to the manufacturer's instructions.

For data set [2], the target named is T1, Recombinant human MIF protein (Homo sapiens, UniProt P14174).
T1 sequence (P14174 2-115 limits assumed): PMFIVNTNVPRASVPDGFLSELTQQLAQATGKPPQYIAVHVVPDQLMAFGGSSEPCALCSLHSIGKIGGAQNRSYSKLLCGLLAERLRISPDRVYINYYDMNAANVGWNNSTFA
Briefly: Inhibition of MIF tautisomerase activity (L-dopachrome). The class given is biochemical. The settings on record: mean±standard deviation of 2-4 experiments; for inhibition at 50 µM: 50 uM compound; for inhibition at 100 µM: 100 uM compound. Here is the method:
MIF protein has the ability in vitro to catalyze the tautisomerization of dopachrome^(15).
Recombinant human MIF protein was pre-incubated with compounds as indicated prior to the addition of L-dopachrome substrate. Tautomerase activity was determined by measurement of die decrease in absorbance at 475 nm after 2 min. […]

Data set [3] is described as follows: Lower limits of aqueous solubility by nephelometry. It is filed as physicochemical. The settings on record: phosphate-buffered saline with 0.005% (v/v) P20 and 5% DMSO, aqueous with cosolvent or surfactant or cyclodextrin, kinetic from dmso stock, 0.005% (v/v) P20, 5% DMSO, read-out: Solubility Lower Limit Range. As for the experimental part:
Lower limits of aqueous compound solubility were determined in a nepholometer in phosphate-buffered saline containing 0.005% (v/v) P20 and a final concentration of 5% DMSO. Briefly, compounds were initially dissolved in DMSO as a 10 mM stock solution and diluted to 1 mM and 0.5 mM working solutions with neat DMSO. The compounds were then titrated in DMSO and a constant volume of DMSO stock added to filtered PBS/P20 solution so that the final DMSO concentration was 5%. The solubility was then determined in clear, flat-bottom 96-well plates using the nephelometer and reported as the concentration range at which the compound begins to precipitate from solution.

Data set [4] deals with C57Bl/6j mice. Briefly: In vivo assay of MIF antagonism: murine endotoxic shock model, serum TNF. Particulars: intra-peritoneal, 10, 1 and 0.1 mg/kg at 24 hours and 1 hour before LPS 1 mg/kg (FIG. 3). Details: species or system mouse. As for the experimental part: The activities of compounds were studied in the murine endotoxic shock model. This model has been previously shown to be dependent on MIF^(14). Administration of a compound which inhibits the cytokine activity of MIF would be expected to result hi a reduction in serum level s of the pro-inflammatory cytokine TNF.
Endotoxaemia was induced by intra-peritoneal Injection of C57Bl/6j mice with lipopolysaccharide (LPS) (1 mg/kg) in 200 μl saline. Animals were treated with either a saline solution (control) only, or LPS with vehicle or compounds B1 and A3 in vehicle at doses of 10, 1 and 0.1 mg/kg body weight, administered by intra-peritoncal injection at 24 hours and 1 hour before intra-peritoneal LPS injection. After 1 hour mice were humanely killed by CO2 inhalation then neck dislocation. Serum was obtained from blood obtained by cardiac puncture prior to death and measured for TNF levels by ELISA according to the manufacturer's instructions.

For `CC(=O)OCCCCCCSCC(=O)c1ccc2c(c1)CC(=O)N2` [Compound 8, 6-((2-oxo-2-(2-oxo-2,3-dihydro-1H-indol-5-yl)ethyl)thio)hexyl acetate], the melting point fell in the range of 86 to 87 °C. At 50 µM the inhibition in data set [1] was 42 ± 11%.
On to `Cn1c(=O)n(C)c2cc(C(=O)CSCCC(=O)O)c(Cl)cc21` [Compound 28, 3-((2-(6-chloro-1,3-dimethyl-2-oxo-2,3-dihydro-1H-benzimidazol-5-yl)-2-oxoethyl)thio)propanoic acid], for which the melting point is 148 to 150 °C. For the same compound, in data set [2], the inhibition at 50 µM was 12 ± 6% and the inhibition at 100 µM turned out to be 27 ± 6%.
As to `O=C1Cc2cc(C(=O)CSCCCCCCO)ccc2N1` [Compound 9, 5-(((6-hydroxyhexyl)thio)acetyl)-1,3-dihydro-2H-indol-2-one], the melting point is 105 to 108 °C.
Take `CCCCSCC(=O)c1cc2sc(=O)n(C)c2cc1Cl` [Compound 31, 6-((butylthio)acetyl)-5-chloro-3-methyl-1,3-benzothiazol-2(3H)-one]: in data set [2], the inhibition at 50 µM is 2 ± 3% and the inhibition at 100 µM turned out to be 8 ± 8%.
`O=C(CSCCO)c1ccc2[nH]c(=O)[nH]c2c1` [Compound 7, 5-(((2-hydroxyethyl)thio)acetyl)-1,3-dihydro-2H-benzimidazol-2-one]: the melting point is 320 °C (dec.).
Compound `CCCCSCC(=O)c1ccc2c(c1)n(C)c(=O)n2C` [Compound 24, 5-((butylthio)acetyl)-1,3-dimethyl-1,3-dihydro-2H-benzimidazol-2-one] registered a melting point of 80 to 81 °C. In data set [2], the inhibition at 50 µM was found to be 15 ± 6% and the inhibition at 100 µM was 34 ± 12%.
The matching figures for `CCCCSCC(=O)c1cc2sc(=O)[nH]c2cc1Cl` [Compound 29, 6-((butylthio)acetyl)-5-chloro-1,3-benzothiazol-2(3H)-one]: 102.5 to 115 °C, 24 ± 1% and 42 ± 9%.
For `O=C(CSCCCCCCO)c1ccc2[nH]c(=O)oc2c1` [Compound 15, 6-(((6-Hydroxyhexyl)thio)acetyl)-1,3-benzoxazol-2(3H)-one], the solubility in data set [3] is 77 to 250 µg/mL (≈ 249 to 808 µM). Besides, the “suppression of LPS-induced serum TNF levels, in words” value in data set [4] is “significant dose-dependent suppression”. This compound had an inhibition at 50 µM in data set [1] of 42 ± 40%.
In data set [1], `CCCCSCC(=O)c1ccc2c(c1)CC(=O)N2` [Compound 21, 5-((Butylthio)acetyl)-1,3-dihydro-2H-indol-2-one] displayed an inhibition at 50 µM of 41 ± 54%.
In turn, `Cn1c(=O)sc2cc(C(=O)CSCCC(=O)O)c(Cl)cc21` [Compound 32, 3-((2-(5-chloro-3-methyl-2-oxo-2,3-dihydro-1,3-benzothiazol-6-yl)-2-oxoethyl)thio)propanoic acid] showed a melting point of 120 to 121 °C. In data set [2], the inhibition at 50 µM was determined as 4 ± 1% and the inhibition at 100 µM was determined as 11 ± 4%.
In turn, `CCCCSCC(=O)c1cc2[nH]c(=O)[nH]c2cc1Cl` [Compound 25, 5-((butylthio)acetyl)-6-chloro-1,3-dihydro-2H-benzimidazol-2-one] displayed a melting point of 199 to 201 °C. In data set [2], the inhibition at 50 µM was 4 ± 3% and the inhibition at 100 µM worked out at 12 ± 4%.
`O=C1Cc2cc(C(=O)CSCCCCCCO)c(Cl)cc2N1` [Compound 11, 6-chloro-5-(((6-hydroxyhexyl)thio)acetyl)-1,3-dihydro-2H-indol-2-one] came in with an inhibition at 50 µM in data set [1] of 48 ± 24%.
In turn, `COC(=O)CCSCC(=O)c1ccc2c(c1)CC(=O)N2` [Compound 1, methyl 3-((2-oxo-2-(2-oxo-2,3-dihydro-1H-indol-5-yl)ethyl)thio)propanoate] had a melting point of 106 to 108 °C. In addition, the solubility in data set [3] fell in the range of 18 to 63 µg/mL (≈ 61.4 to 215 µM). In data set [1], the inhibition at 50 µM came to 13 ± 23%.
For `CCCCSCC(=O)c1cc2c(cc1Cl)n(C)c(=O)n2C` [Compound 27, 5-((butylthio)acetyl)-6-chloro-1,3-dimethyl-1,3-dihydro-2H-benzimidazol-2-one], in data set [2], the inhibition at 50 µM was 28 ± 17% and the inhibition at 100 µM amounted to 44 ± 12%.
With `COC(=O)CCSCC(=O)c1cc2c(cc1Cl)NC(=O)C2` [Compound 12, methyl 3-((2-(6-chloro-2-oxo-2,3-dihydro-1H-indol-5-yl)-2-oxoethyl)thio)propanoate], the melting point is 75 to 77 °C. In data set [1], 50 µM produced 60% inhibition.
Regarding `O=C(O)CCSCC(=O)c1cc2sc(=O)[nH]c2cc1Cl` [Compound 30, 3-((2-(5-chloro-2-oxo-2,3-dihydro-1,3-benzothiazol-6-yl)-2-oxoethyl)thio)propanoic acid], the melting point lay within 195 to 197 °C. Further, in data set [2], the inhibition at 50 µM was determined as 12 ± 11% and the inhibition at 100 µM is 27 ± 16%.
On to `O=C(O)CCSCC(=O)c1ccc2[nH]c(=O)sc2c1` [Compound 18, 3-((2-Oxo-2-(2-oxo-23-dihydro-1,3-benzothiazol-6-yl)ethyl)thio)propanoic acid], for which the inhibition at 50 µM in data set [1] turned out to be 49 ± 34%.
In turn, `CCCCSCC(=O)c1cc2c(cc1Cl)NC(=O)C2` [Compound 20, 5-((Butylthio)acetyl)-6-chloro-1,3-dihydro-2H-indol-2-one] had an inhibition at 50 µM in data set [1] of 59 ± 11%.
Take `O=C(O)CCSCC(=O)c1ccc2[nH]c(=O)oc2c1` [Compound 14, 3-((2-Oxo-2-(2-oxo-2,3-dihydro-1,3-benzoxazol-6-yl)ethyl)thio)propanoic acid]: the solubility in data set [3] is above 140 µg/mL.
As to `O=C(O)CCSCC(=O)c1cc2[nH]c(=O)[nH]c2cc1Cl` [Compound 26, 3-((2-(6-chloro-2-oxo-2,3-dihydro-1H-benzimidazol-5-yl)-2-oxoethyl)thio)propanoic acid], in data set [2], the inhibition at 50 µM was 2 ± 3% and the inhibition at 100 µM came to 4 ± 6%.
With `O=C(O)CSCC(=O)c1ccc2[nH]c(=O)oc2c1` [Compound 17, ((2-Oxo-2-(2-oxo-2,3-dihydro-1,3-benzoxazol-6-yl)ethyl)thio)acetic acid], the inhibition at 50 µM in data set [1] was 8 ± 90%.
With `O=C(CSCCCCCCO)c1ccc2[nH]c(=O)[nH]c2c1` [Compound 10, 5-(((6-hydroxyhexyl)thio)acetyl)-1,3-dihydro-2H-benzimidazol-2-one], the melting point lay in the range of 180 to 181 °C. Besides, the inhibition at 50 µM in data set [1] worked out at 25%.
As to `COC(=O)CSCC(=O)c1ccc2[nH]c(=O)[nH]c2c1` [Compound 5, methyl ((2-oxo-2-(2-oxo-2,3-dihydro-1H-benzimidazol-5-yl)ethyl)thio)acetate], the melting point was in the range of 177 to 178.5 °C.
Take `Cn1c(=O)n(C)c2cc(C(=O)CSCCC(=O)O)ccc21` [Compound 23, 3-((2-(1,3-dimethyl-2-oxo-2,3-dihydro-1H-benzimidazol-5-yl)-2-oxoethyl)thio) propanoic acid]: the melting point lay within 174 to 176 °C. For the same compound, in data set [2], the inhibition at 50 µM came out at 0% and the inhibition at 100 µM worked out at 3 ± 2%.
As for `O=C(O)CSCC(=O)c1ccc2[nH]c(=O)[nH]c2c1` [Compound 6, ((2-oxo-2-(2-oxo-2,3-dihydro-1H-benzimidazol-5-yl)ethyl)thio)acetic acid], the melting point is 230 °C (dec.). The solubility in data set [3] was in the range of 67 to 250 µg/mL (≈ 252 to 939 µM).
`CCCCSCC(=O)c1ccc2[nH]c(=O)oc2c1` [Compound 16, 6-((Butylthio)acetyl)-1,3-benzoxazol-2(3H)-one] displayed an inhibition at 50 µM in data set [1] of 12 ± 63%.
In turn, `CCCCSCC(=O)c1ccc2[nH]c(=O)[nH]c2c1` [Compound 22, 5-((butylthio)acetyl)-1,3-dihydro-2H-benzimidazol-2-one] returned a melting point of 211 to 213 °C. In data set [2], the inhibition at 50 µM was found to be 4 ± 6% and the inhibition at 100 µM came out at 4 ± 7%.

For orientation: melting point means the temperature of the solid-liquid transition. The term inhibition denotes the relative decrease from the control value, in per cent. In general, solubility refers to the concentration that dissolves in the medium under given conditions.
